Measurements reported in US20210084902A1, “FUNGICIDAL MIXTURE COMPRISING SUBSTITUTED 3-PHENYL-5-(TRIFLUOROMETHYL)-1,2,4-OXADIAZOLES” (BASF SE, priority 2017, published 2021).
Read-outs that look alike come from different tables or passages of the source.

What was measured:
Format in all cases: cell-based
[1] = system: Colletotrichum orbiculare; test: Fungicidal activity against Colletotrichum orbiculare in the microtiterplate test
Septoria tritici = test: Fungicidal activity against Septoria tritici, micro titer plate (MTP) test; conditions: for inhibition of growth at 1 ppm / inhibition of growth at 4 ppm / inhibition of growth at […] / Observed efficacy: Table V.4, component B alone
Botrytis cinerea = test: Fungicidal activity against Botrytis cinerea, micro titer plate (MTP) test; conditions: component B alone; for inhibition of growth at 1 ppm / inhibition of growth at […]: Botrytis cinerea, 168 h, read-out: Observed efficacy
Pyricularia oryzae = test: microbe, parasite or virus in culture; conditions: for Observed efficacy: single compound
[2] = Colletotrichum orbiculare, read-out: Observed efficacy
[3] = Zymoseptoria tritici, 168 h, 1 ppm, read-out: Observed efficacy
[4] = Zymoseptoria tritici, 168 h, 4 ppm, read-out: Observed efficacy
[5] = Colletotrichum orbiculare, 0.25 ppm, read-out: Observed efficacy
[6] = Colletotrichum orbiculare, 0.016 ppm, read-out: Observed efficacy
[7] = Zymoseptoria tritici, 168 h, 0.016 ppm, read-out: Observed efficacy
[8] = Colletotrichum orbiculare, 0.063 ppm, read-out: Observed efficacy
[9] = Colletotrichum orbiculare, 1 ppm, read-out: Observed efficacy
[10] = Zymoseptoria tritici, 168 h, 0.063 ppm, read-out: Observed efficacy
[11] = Zymoseptoria tritici, 168 h, 0.25 ppm, read-out: Observed efficacy
[12] = Pyricularia oryzae, 168 h, read-out: Observed efficacy

COc1cc(C)c(C(=O)c2c(OC)ccc(Br)c2C)c(OC)c1OC [Metrafenone, metrafenone] gave an inhibition of growth at 4 ppm [1, 2] of 14%.
CCN(C)C=Nc1cc(Br)c(OC(C)c2cc(F)cc(F)c2)nc1C (stereo not drawn) [K.1.31, N′-[5-bromo-6-[1-(3,5-difluorophenyl)ethoxy]-2-methyl-3-pyridyl]-N-ethyl-N-methyl-formamidine] showed an inhibition of growth at 1 ppm (Septoria tritici; [3]) of 5%, an inhibition of growth at 4 ppm (Septoria tritici; [4]) of 62% and an inhibition of growth at 1 ppm (Botrytis cinerea; 1 ppm) of 53%.
Molecule OC(Cc1ccccc1Cl)(Cn1nc[nH]c1=S)C1(Cl)CC1 (stereo not drawn) [Prothioconazol, prothioconazole] has an inhibition of growth at […] [1, 5] of 14%.
CON=C(C(=O)OC)c1ccccc1CON=C(C)c1cccc(C(F)(F)F)c1 [Trifloxystrobin, trifloxystrobin] gave an inhibition of growth at […] [1, 6] of 9%, an inhibition of growth at […] (Septoria tritici; [7]) of 43% and an inhibition of growth at […] (Botrytis cinerea; 0.063 ppm) of 3%.
With COc1cc(C)c(C(=O)c2c(OC)ccc(Br)c2C)c(OC)c1OC [Metrafenon] the Observed efficacy (Septoria tritici; 4 ppm) was 1, the Observed efficacy (Septoria tritici; 16 ppm) was 1 and the Observed efficacy (Pyricularia oryzae; 4 ppm) was 5. For the same molecule, the Observed efficacy (Pyricularia oryzae; 16 ppm) was 21.
Molecule O=c1c2cc(F)ccc2nc(-n2cncn2)n1-c1ccc(Cl)cc1Cl [Fluquinconazol, fluquinconazole] has an inhibition of growth at […] [1, 8] of 3% and an inhibition of growth at 1 ppm [1, 9] of 12%.
O=C(NCCc1ncc(C(F)(F)F)cc1Cl)c1ccccc1C(F)(F)F [Fluopyram, fluopyram] gave an inhibition of growth at […] [1, 5] of 15%, an inhibition of growth at […] (Septoria tritici; [10]) of 13% and an inhibition of growth at […] (Septoria tritici; [11]) of 33%.
CO/N=C(/C(=O)OC)c1ccccc1COc1ccccc1C [Kresoxim-methyl, kresoxim-methyl] showed an inhibition of growth at […] [1, 5] of 45%.
CCC(=O)OCOc1c(OC)ccnc1C(=O)NC1COC(=O)[C@H](Cc2ccccc2)[C@@H](OC(=O)C(C)C)[C@H](C)OC1=O (stereo partly drawn) [A.2.5, [(6S,7R,8R)-8-benzyl-3-[[4-methoxy-3-(propanoyloxymethoxy)pyridine-2-carbonyl]amino]-6-methyl-4,9-dioxo-1,5-dioxonan-7-yl] 2-methylpropanoate] was tested, and the inhibition of growth at […] [1, 5] was 72%, the inhibition of growth at […] (Septoria tritici; [10]) was 33% and the inhibition of growth at 1 ppm (Botrytis cinerea; 1 ppm) was 6%.
Molecule COC(=O)[C@@H](C)N(C(=O)Cc1ccccc1)c1c(C)cccc1C [Benalaxyl-M, benalaxyl-M] has an Observed efficacy ([1]; 1 ppm) of 2, an Observed efficacy (Botrytis cinerea; 4 ppm) of 7% and an Observed efficacy (Pyricularia oryzae; 1 ppm) of 3. It also gave an Observed efficacy (Pyricularia oryzae; 4 ppm) of 12.
Molecule COc1cc(C)c(C(=O)c2c(OC)ncc(Cl)c2C)c(OC)c1OC [Pyriofenon, pyriofenone] has an Observed efficacy (Botrytis cinerea; 1 ppm) of 2%.
mancozeb gave an Observed efficacy ([1]; 1 ppm) of 24 and an Observed efficacy (Septoria tritici; 1 ppm) of 9.
Work on CC[C@H]1CC(C)(C)c2cccc(NC(=O)c3cccnc3C(F)F)c21 [A.3.34, 2-(difluoromethyl)-N-[(3S)3-ethyl-1,1-dimethyl-indan-4-yl]pyridine-3-carboxamide] yielded an inhibition of growth at 1 ppm [1, 9] of 14%, an inhibition of growth at […] (Septoria tritici; [11]) of 17% and an inhibition of growth at […] (Botrytis cinerea; 0.25 ppm) of 1%. The inhibition of growth at 1 ppm (Botrytis cinerea; 1 ppm) was 51%.
Work on CCN(C)C=Nc1cc(Br)c(OC2Cc3ccccc3C2)nc1C [K.1.30, N′-(5-bromo-6-indan-2-yloxy-2-methyl-3-pyridyl)-N-ethyl-N-methyl-formamidine] yielded an inhibition of growth at 1 ppm (Septoria tritici; [3]) of 0% and an inhibition of growth at 4 ppm (Septoria tritici; [4]) of 0%.
CC1CC(C)(C)c2cccc(NC(=O)c3cccnc3C(F)F)c21 (stereo not drawn) [A.3.32, 2-(difluoromethyl)-N-(1,1,3-trimethyl-indan-4-yl)pyridine-3-carboxamide] showed an inhibition of growth at 1 ppm [1, 9] of 15%, an inhibition of growth at […] (Septoria tritici; [11]) of 22% and an inhibition of growth at 1 ppm (Septoria tritici; [3]) of 70%. For the same molecule, the inhibition of growth at […] (Botrytis cinerea; 0.25 ppm) was 32%.
CCCC1COC(Cn2cncn2)(c2ccc(Cl)cc2Cl)O1 (stereo not drawn) [Propiconazol, propiconazole] showed an inhibition of growth at […] [1, 6] of 3%, an inhibition of growth at […] [1, 8] of 3% and an inhibition of growth at […] [1, 5] of 15%. For the same molecule, the inhibition of growth at […] (Septoria tritici; [10]) was 17%.
CO/N=C(/C(=O)OC)c1ccccc1COc1ccccc1C [Kresoximmethyl] showed an inhibition of growth at […] (Septoria tritici; [10]) of 41% and an inhibition of growth at 1 ppm (Pyricularia oryzae; [12]) of 58%.
With CCCCCCCCc1c(CC)nc2ncnn2c1N [Ametoctradin, ametoctradin] the Observed efficacy ([1]; 63 ppm) was 14, the Observed efficacy (Pyricularia oryzae; 16 ppm) was 8 and the Observed efficacy (Pyricularia oryzae; 63 ppm) was 13.
With CC(C)CC(C)c1sccc1NC(=O)c1cn(C)nc1C(F)(F)F (stereo not drawn) [Penthiopyrad, penthiopyrad] the inhibition of growth at […] [1, 5] was 8%, the inhibition of growth at […] (Septoria tritici; [10]) was 5% and the inhibition of growth at […] (Septoria tritici; [11]) was 28%.
For Cc1nn(C)cc1C(=O)Nc1cccc2c1C(C)CC2(C)C (stereo not drawn) [A.3.24, 1,3-dimethyl-N-(1,1,3-trimethylindan-4-yl)pyrazole-4-carboxamide], the inhibition of growth at […] [1, 5] was 3%, the inhibition of growth at 1 ppm [1, 9] was 12% and the inhibition of growth at […] (Septoria tritici; [11]) was 25%. For the same molecule, the inhibition of growth at 1 ppm (Septoria tritici; [3]) was 76% and the inhibition of growth at […] (Botrytis cinerea; 0.25 ppm) was 41%.
Molecule CC1(C)CCC(Cc2ccc(Cl)cc2)C1(O)Cn1cncn1 (stereo not drawn) [Metconazol, metconazole] has an inhibition of growth at […] [1, 8] of 11%.
With CCCCCOC(=O)Nc1cccc(CO/N=C(/c2ccccc2)c2nnnn2C)n1 [K.1.42, pentyl N-[6-[[(Z)-[(1-methyltetrazol-5-yl)-phenyl-methylene]amino]oxymethyl]-2-pyridyl]carba-mate] the Observed efficacy ([1]; 1 ppm) was 21 and the Observed efficacy (Pyricularia oryzae; 1 ppm) was 9.
In the case of CC(C)(C)C(O)(CCc1ccc(Cl)cc1)Cn1cncn1 (stereo not drawn) [Tebuconazol, tebuconazole], the inhibition of growth at […] [1, 8] is reported as 2%, the inhibition of growth at […] [1, 5] is reported as 14% and the inhibition of growth at 0.0663 ppm (Pyricularia oryzae; [12]) is reported as 4%.
Molecule O=C(Nc1ccccc1-c1ccc(Cl)cc1)c1cccnc1Cl [Boscalid, boscalid] has an inhibition of growth at […] [1, 5] of 0%, an inhibition of growth at 1 ppm [1, 9] of 0% and an inhibition of growth at 1 ppm (Septoria tritici; [3]) of 61%. The inhibition of growth at 4 ppm (Pyricularia oryzae; [12]) was 5%.
Molecule CNC(=O)/C(=N/OC)c1ccccc1COc1cc(C)ccc1C [Dimoxystrobin, dimoxystrobin] has an Observed efficacy ([1]; 1 ppm) of 71 and an Observed efficacy (Botrytis cinerea; 1 ppm) of 14%.
With O=C(Cc1ccccc1)N/C(=N\OCC1CC1)c1c(C(F)(F)F)ccc(F)c1F [Cyflufenamid, cyflufenamid] the inhibition of growth at 16 ppm ([1]; Colletotrichum orbiculare, 16 ppm, read-out: Observed efficacy) was 11%.
For COc1ccnc(C(=O)NC2COC(=O)[C@H](Cc3ccccc3)[C@@H](OC(=O)C(C)C)[C@H](C)OC2=O)c1O (stereo partly drawn) [A.2.3, [(6S,7R,8R)-8-benzyl-3-[(3-hydroxy-4-methoxy-pyridine-2-carbonyl)amino]-6-methyl-4,9-dioxo-1,5-dioxonan-7-yl] 2-methylpropanoate], the inhibition of growth at […] [1, 8] was 47%, the inhibition of growth at […] [1, 5] was 77% and the inhibition of growth at […] (Septoria tritici; [7]) was 52%. The inhibition of growth at […] (Botrytis cinerea; 0.25 ppm) was 0% and the inhibition of growth at 1 ppm (Botrytis cinerea; 1 ppm) was 11%.
CC1(C)CCC(=Cc2ccc(Cl)cc2)C1(O)Cn1cncn1 (stereo not drawn) [Triticonazol, triticonazole] gave an inhibition of growth at 1 ppm [1, 9] of 11%.
Work on N#Cc1sc2c(=O)c3ccccc3c(=O)c=2sc1C#N [Dithianon, dithianon] yielded an inhibition of growth at […] [1, 8] of 21%.
For CC1CC(C)(C)c2c(F)ccc(NC(=O)c3cn(C)nc3C(F)F)c21 (stereo not drawn) [Fluindapyr, 3-(difluoromethyl)-N-(7-fluoro-1,1,3-trimethyl-indan-4-yl)-1-methyl-pyrazole-4-carboxamide], the inhibition of growth at 1 ppm [1, 9] was 12%, the inhibition of growth at […] (Septoria tritici; [11]) was 21% and the inhibition of growth at 1 ppm (Septoria tritici; [3]) was 58%. For the same molecule, the inhibition of growth at […] (Botrytis cinerea; 0.25 ppm) was 21%.
In the case of CC(C)c1ccc(Cl)cc1CN(C(=O)c1c(C(F)F)nn(C)c1F)C1CC1 [Isoflucypram, N-[(5-chloro-2-isopropyl-phenyl)methyl]-N-cyclopropyl-3-(difluoromethyl)-5 fluoro-1-methyl-pyrazole-4-carboxamide], the inhibition of growth at […] (Septoria tritici; [11]) is reported as 61%, the inhibition of growth at 1 ppm (Septoria tritici; [3]) is reported as 62% and the inhibition of growth at […] (Botrytis cinerea; 0.25 ppm) is reported as 53%. It also gave an inhibition of growth at 1 ppm (Pyricularia oryzae; [12]) of 11%.
With CCCOCC(C)Oc1nc(C)c(N=CN(C)CC)cc1Br (stereo not drawn) [K.1.54, N′-[5-bromo-2-methyl-6-(1-methyl-2-propoxy-ethoxy)-3-pyridyl]-N-ethyl-N-methyl-formamidine] the inhibition of growth at 1 ppm (Septoria tritici; [3]) was 3% and the inhibition of growth at 1 ppm (Pyricularia oryzae; [12]) was 19%.
Work on CC(C1CC1)C(O)(Cn1cncn1)c1ccc(Cl)cc1 (stereo not drawn) [Cyproconazol, cyproconazole] yielded an inhibition of growth at 4 ppm [1, 2] of 4%.
Cc1cccc(-n2nnn(C)c2=O)c1COc1ccn(-c2ccc(Cl)cc2)n1 [A.1.25, 1-[2-[[1-(4-chlorophenyl)pyrazol-3-yl]oxymethyl]-3-methyl-phenyl]-4-methyl-tetrazol-5-one] was tested, and the inhibition of growth at 0.004 ppm (Septoria tritici; Zymoseptoria tritici, 168 h, read-out: Observed efficacy) was 3% and the inhibition of growth at 0.004 ppm (Pyricularia oryzae; [12]) was 4%.
CO/C=C(/C(=O)OC)c1ccccc1Oc1cc(Oc2ccccc2C#N)ncn1 [Azoxystrobin, azoxystrobin] was tested, and the Observed efficacy ([1]; 0.004 ppm) was 1.
COC(=O)Nc1nc2ccccc2[nH]1 [Carbendazim, carbendazim] was tested, and the inhibition of growth at […] [1, 8] was 60%.
For CCN(C)C=Nc1cc(C)c(Oc2nc(Cc3ccc(Cl)cc3)ns2)cc1C [K.1.29, N′-[4-[[3-[(4-chorophenyl)methyl]-1,2,4-thiadiazo-5-yl]oxy]-2,5-dimethyl-phenyl]-N-ethyl-N-methyl-formamidine], the Observed efficacy (Septoria tritici; 4 ppm) was 6.
For Cn1cc(C(=O)Nc2cccc3c2[C@@H]2CC[C@H]3C2=C(Cl)Cl)c(C(F)F)n1 (racemic) [Benzovindiflupyr, benzovindiflupyr], the Observed efficacy ([1]; 0.004 ppm) was 2.
Work on Cn1cc(C(=O)Nc2ccccc2-c2cc(F)c(F)c(F)c2)c(C(F)F)n1 [Fluxapyroxad, fluxapyroxad] yielded an Observed efficacy ([1]; 0.004 ppm) of 1.
Work on COC(=O)C(C)N(C(=O)Cc1ccccc1)c1c(C)cccc1C (stereo not drawn) [Benalaxyl, benalaxyl] yielded an inhibition of growth at 4 ppm [1, 2] of 13%, an inhibition of growth at 1 ppm (Pyricularia oryzae; [12]) of 2% and an inhibition of growth at 4 ppm (Pyricularia oryzae; [12]) of 8%.
